According to the NIST ThermoML archive (doi:10.1016/j.jct.2012.06.030):
Numbers after ± are expanded uncertainties.

Assay: molar heat capacity at constant pressure; xn = mol fraction of the nth substance listed
Details: 101 kPa, Liquid, Small sample (50 mg) DSC

CCCCCC[n+]1ccc2ccccc2c1.N#C[S-] [2-hexylisoquinolinium thiocyanate] + O
molar heat capacity at constant pressure [J/K/mol]
Details | x1 = 0.2887 | x1 = 0.4013 | x1 = 0.5043 | x1 = 0.6059 | x1 = 0.6997 | x1 = 0.7864 | x1 = 0.8824 | x1 = 1
288.15 K | 189 ± 8 | 220 ± 9 | 265 ± 11 | 298 ± 13 | 333 ± 14 | 347 ± 15 | 390 ± 17 | 433 ± 18
293.15 K | 191 ± 8 | 222 ± 9 | 267 ± 11 | 300 ± 13 | 335 ± 14 | 350 ± 15 | 392 ± 17 | 436 ± 19
298.15 K | 192 ± 8 | 224 ± 10 | 269 ± 11 | 302 ± 13 | 337 ± 14 | 352 ± 15 | 395 ± 17 | 439 ± 19
303.15 K | 193 ± 8 | 225 ± 10 | 271 ± 12 | 304 ± 13 | 340 ± 14 | 354 ± 15 | 397 ± 17 | 442 ± 19
308.15 K | 195 ± 8 | 226 ± 10 | 272 ± 12 | 306 ± 13 | 341 ± 14 | 357 ± 15 | 400 ± 17 | 445 ± 19
313.15 K | 196 ± 8 | 228 ± 10 | 274 ± 12 | 308 ± 13 | 343 ± 15 | 359 ± 15 | 402 ± 17 | 447 ± 19
318.15 K | 197 ± 8 | 229 ± 10 | 276 ± 12 | 309 ± 13 | 346 ± 15 | 361 ± 15 | 404 ± 17 | 450 ± 19
323.15 K | 198 ± 8 | 230 ± 10 | 277 ± 12 | 311 ± 13 | 348 ± 15 | 363 ± 15 | 406 ± 17 | 453 ± 19
328.15 K | 198 ± 8 | 232 ± 10 | 278 ± 12 | 312 ± 13 | 350 ± 15 | 365 ± 15 | 409 ± 17 | 456 ± 19
333.15 K | 199 ± 8 | 233 ± 10 | 280 ± 12 | 314 ± 13 | 352 ± 15 | 367 ± 16 | 411 ± 17 | 458 ± 19
338.15 K | 200 ± 9 | 234 ± 10 | 281 ± 12 | 316 ± 13 | 353 ± 15 | 369 ± 16 | 413 ± 18 | 461 ± 20
343.15 K | 201 ± 9 | 235 ± 10 | 283 ± 12 | 318 ± 14 | 355 ± 15 | 371 ± 16 | 415 ± 18 | 463 ± 20
